Data published in US7588913B2, “Process for the preparation of cephradine” (DSM IP Assets B.V., priority 2003, dated 2009).
Read-outs that look alike come from different tables or passages of the source.

Tests used:
[1] = type: physicochemical
Method: (§1) The coloration of cephradine hydrate was determined by the absorbance at 450 nm. The absorbance and stress stability of the cephradine hydrate prepared as described above were determined. • 1. Absorbance
(§2) 1 g of cephradine hydrate was dissolved in 10 ml 10% aqueous sodium carbonate solution. The absorbance was determined at 450 nm (=A450) on a Perkin Elmer 550 S spectrophotometer, with 10% aqueous sodium carbonate solution as a reference solution at room temperature. • 2. Stress Stability Test 1.
Cephradine hydrate prepared enzymatically according to Example III and chemically according to Reference Experiment B) was kept at 40° C. at a relative humidity of 75%. After 0, 2, 4, 6 8, 10 and 12 weeks the absorbance at 450 nm was determined as described above.

[2] = Coloration of cephradine hydrate: absorbance at 450 nm; type: physicochemical; conditions: before stress stability test, crystallisation pH 4.80
Method: as §2, with “The coloration of cephradine hydrate was determined by the absorbance at 450 nm. The absorbance and stress stability of the cephradine hydrate prepared as described above were determined. • 1. Absorbance 1 g” for “1 g”

[3] = Stress stability test 2 (3 hrs at 100° C., A450); type: physicochemical; conditions: for A450 after stress stability test (3 h, 100° C.): crystallisation pH 4.80, hydrate
Method: as §1, §2
Cephradine hydrate prepared enzymatically according to Example III and crystallised at different temperatures as indicated in Table 3 was maintained during 3 hrs at 100° C. The A450 of the cephradine crystals thus treated was determined as described above.

SMILES | A450 at t = 0 [2] | A450 after stress stability test (3 h, 100° C.) [3] | further results
CC1=C(C(=O)O)N2C(=O)[C@@H](NC(=O)[C@H](N)C3=CCC=CC3)[C@H]2SC1 [Cephradine prepared chemically, cephradine hydrate] | – | – | A450 (color stability) ([1]; 0 weeks): 0.028; A450 (color stability) ([1]; 2 weeks): 0.065; A450 (color stability) ([1]; 4 weeks): 0.077; A450 (color stability) ([1]; 6 weeks): 0.161; A450 (color stability) ([1]; 8 weeks): 0.142; A450 (color stability) ([1]; 10 weeks): 0.211
CC1=C(C(=O)O)N2C(=O)[C@@H](NC(=O)[C@H](N)C3=CCC=CC3)[C@H]2SC1 [IV, cephradine hydrate] | 0.051 | 0.301 | –
CC1=C(C(=O)O)N2C(=O)[C@@H](NC(=O)[C@H](N)C3=CCC=CC3)[C@H]2SC1 [V, cephradine hydrate] | 0.018 | 0.056 | Color stability of cephradine crystals versus crystallization temperature [3]: superior values

The next lines start with results.

A450 at t = 0 [2] | A450 after stress stability test (3 h, 100° C.) [3] | SMILES | further results
0.021 | 0.291 | CC1=C(C(=O)O)N2C(=O)[C@@H](NC(=O)[C@H](N)C3=CCC=CC3)[C@H]2SC1 [VI, cephradine hydrate] | –
0.017 | 0.330 | CC1=C(C(=O)O)N2C(=O)[C@@H](NC(=O)[C@H](N)C3=CCC=CC3)[C@H]2SC1 [VII, cephradine hydrate] | –
